Data from US5229369A, “Aminoalkylaminocarbonyl aminodiol amino acid derivatives as anti-hypertensive agents” (G. D. Searle & Co., priority 1991, dated 1993).
Where a name gives a salt, the structure may show the parent alone. Where a SMILES comes first, the peptide text is derived from it. [ ]: non-standard residue; d: D form. The star is where a group is joined. Sta = CC(C)C[C@H](N)[C@@H](O)CC(=O)O; Isovaleryl = CC(C)CC(=O)*

Legend:
[1] = target: T1, human renin (Homo sapiens, UniProt P00797); test: human renin inhibition test in vitro (angiotensin I by radioimmunoassay); assay type: biochemical; settings: human plasma, pH 7.4, 37° C., two hours
T1 construct: purchased National Institute for Biological Standards, London
T1 sequence (P00797 67-406): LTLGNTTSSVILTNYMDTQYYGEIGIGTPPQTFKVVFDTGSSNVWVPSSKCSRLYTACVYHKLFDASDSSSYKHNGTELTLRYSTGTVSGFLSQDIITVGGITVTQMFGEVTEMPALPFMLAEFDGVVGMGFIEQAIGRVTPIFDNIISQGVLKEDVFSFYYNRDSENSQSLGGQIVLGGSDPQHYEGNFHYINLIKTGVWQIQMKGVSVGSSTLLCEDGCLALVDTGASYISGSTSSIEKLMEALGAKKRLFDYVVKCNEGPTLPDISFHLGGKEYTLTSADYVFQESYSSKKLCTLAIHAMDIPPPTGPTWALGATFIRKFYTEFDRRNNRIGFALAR
Procedure: Compounds of Formula I were evaluated as inhibitors of human renin in an in vitro assay, as follows: This human renin inhibition test has been previously described in detail [Papaioannou et al., Clinical and Experimental Hypertension, A7(9), 1243-1257 (1985)]. Human renin was obtained from the National Institute for Biological Standards, London. An incubation mixture was prepared containing in a total volume of 0.25 mL 100 mM Tris-acetate buffer at pH 7.4, 25×10^-6 Goldblatt units of renin, 0.05 mL of plasma from human volunteers taking oral contraceptives, 6.0 mM sodium EDTA, 2.4 mM phenylmethyl sulfonyl fluoride, 1.5 mM 8-hydroxyquinoline, 0.4 mg/mL BSA, and 0.024 mg/mL neomycin sulfate. This mixture was incubated for two hours at 37° C. in the presence or absence of renin inhibitors. The produced angiotensin I was determined by radioimmunoassay (New England Nuclear kit). Test compounds to be assayed were solubilized in DMSO and diluted with 100 mM Tris-acetate buffer at pH 7.4 containing 0.5% bovine serum albumin (BSA) to the appropriate concentration. The final concentration of organic solvent in the reaction mixture was less than 1%. Control incubations at 37° C. were used to correct for effects of organic solvent on renin activity.

[2] = system: plasma renin; test: oral activity in vivo in sodium depleted Marmoset monkeys, plasma renin activity; design: species or system Common marmosets (Callithrix jacchus); settings: 1 h, 3 mg/kg dose
Procedure: The oral activity of compounds of Formula I was determined in vivo in Marmoset monkeys in accordance with the following procedure: Common marmosets (Callithrix jacchus, Charles River) were placed on a modified high protein low sodium diet (Purina, St. Louis, Mo,) for 1 to 2 weeks. On the day of the test an animal was anesthetized with isoflurane and cannulated in the femoral artery and vein for blood pressure monitoring, intravenous saralasin infusion and blood sampling. After allowing the animal to recover from surgery for 2 hr, saralasin was infused at 1 microgram/min for 15 minutes to confirm that the animal's blood pressure was dependent on angiotensin II levels. The marmoset was allowed to stabilize for 30 min after the saralasin infusion. The test compound was administered orally and blood pressure was monitored for 2 hr. Blood samples were taken in K-EDTA for plasma renin activity before, 30 min, and 1 hr after compound administration.

[3] = system: hog renin; settings: after injection of hog renin into nephrectomized rats; Gross et al, Science, 175, 656 (1971); cited from earlier work
[4] = system: aspartyl proteases such as pepsin, cathepsin D and renin; settings: Umezawa et al, J. Antibiot. (Tokyo), 23, 259-262 (1970); cited from earlier work

Row | Compound | IC50 [1] | also measured
1 | CNCCN(C)C(=O)O[C@@H](Cc1ccccc1)C(=O)N[C@@H](Cc1c[nH]cn1)C(=O)N[C@@H](CC1CCCCC1)[C@@H](O)[C@@H](O)CC(C)C [Example 10, O-{N-[2-(N-methylamino)ethyl]-N-methylaminocarbonyl}-3-L-phenyllactyl-L-histidineamide of (2S,3R,4S)-2-amino-1-cyclohexyl-3,4-dihydroxy-6-methylheptane] | 1.5 nM | % Reduction of Plasma Renin Activity [2]: 100%
2 | CC(C)C[C@H](NC(=O)[C@H](Cc1ccccc1)OC(=O)N(CCN(C)C)C(C)C)C(=O)N[C@@H](CC1CCCCC1)[C@@H](O)[C@@H](O)CC(C)C [Example 20] | 19 nM | –
3 | CC(C)C[C@H](NC(=O)[C@H](Cc1ccccc1)OC(=O)N(C)CCN(C)C)C(=O)N[C@@H](CC1CCCCC1)[C@@H](O)[C@@H](O)CC(C)C [Example 15] | 5.4 nM | % Reduction of Plasma Renin Activity [2]: 79%
4 | CC(C)C[C@H](O)[C@H](O)[C@H](CC1CCCCC1)NC(=O)[C@H](Cc1c[nH]cn1)NC(=O)[C@H](Cc1ccccc1)OC(=O)N(C)CCN(C)C(=O)OC(C)(C)C [Example 23] | 0.45 nM | –
5 | CC(C)C[C@H](O)[C@H](O)[C@H](CC1CCCCC1)NC(=O)[C@H](Cc1c[nH]cn1)NC(=O)[C@H](Cc1ccccc1)OC(=O)N(C)CCN(C)C [Example 8, O-{N-[2-(N,N-dimethylamino)ethyl]-N-methylaminocarbonyl}-3-L-phenyllactyl-L-histidineamide of (2S,3R,4S)-2-amino-1-cyclohexyl-3,4-dihydroxy-6-methylheptane] | 1 nM | % Reduction of Plasma Renin Activity [2]: 100%
6 | CC(C)CC(=O)N[C@H](C(=O)N[C@H](C(=O)N[C@@H](CC(C)C)[C@@H](O)CC(=O)N[C@@H](C)C(=O)N[C@@H](CC(C)C)[C@@H](O)CC(=O)O)C(C)C)C(C)C [pepstatin] (Isovaleryl-VV[Sta]A[Sta]-OH) | – | blood pressure in vivo [3]: reduce blood pressure in vivo; inhibition of aspartyl proteases [4]: inhibitor of aspartyl proteases such as pepsin, cathepsin D and renin
7 | CC(C)C[C@H](O)[C@H](O)[C@H](CC1CCCCC1)NC(=O)[C@H](C)CNC(=O)[C@H](Cc1ccccc1)OC(=O)N(C)CCN(C)C(=O)OC(C)(C)C [Example 26] | 8.3 nM | –
8 | CNCCN(C)C(=O)O[C@@H](Cc1ccccc1)C(=O)N[C@@H](CC(C)C)C(=O)N[C@@H](CC1CCCCC1)[C@@H](O)[C@@H](O)CC(C)C [Example 11] | 7.7 nM | % Reduction of Plasma Renin Activity [2]: 100%
9 | CC(C)C[C@H](O)[C@H](O)[C@H](CC1CCCCC1)NC(=O)[C@H](C)CNC(=O)[C@H](Cc1ccccc1)OC(=O)N(C)CCN(C)C [Example 18] | 170 nM | –

Second part, led by results:

Row | IC50 [1] | Compound | also measured
10 | 96 nM | CNCCN(C)C(=O)C[C@@H](CCc1ccccc1)C(=O)NC[C@@H](C)C(=O)N[C@@H](CC1CCCCC1)[C@@H](O)[C@@H](O)CC(C)C [Example 28, trifluoroacetate salt] | –
11 | 100 nM | CNCCN(C)C(=O)O[C@@H](Cc1ccccc1)C(=O)NC[C@@H](C)C(=O)N[C@@H](CC1CCCCC1)[C@@H](O)[C@@H](O)CC(C)C [Example 27] | –
12 | 48 nM | CC(C)C[C@H](O)[C@H](O)[C@H](CC1CCCCC1)NC(=O)[C@H](C)CNC(=O)[C@@H](CC(=O)N(C)CCN(C)C)Cc1ccccc1 [Example 19] | –
13 | 67 nM | CNCCCCN(C)C(=O)C[C@@H](CCc1ccccc1)C(=O)NC[C@@H](C)C(=O)N[C@@H](CC1CCCCC1)[C@@H](O)[C@@H](O)CC(C)C [Example 22, 3-{N-[4-(N-methylamino)butyl]-N-methyl-aminocarbonyl}-2-R-phenethyl-propionyl-α-(R)-methyl-β-alanineamide of (2S,3R,4S)-2-amino-1-cyclohexyl-3,4-dihydroxy-6-methylheptane] | –
14 | 1350 nM | CC(C)C[C@H](O)[C@H](O)[C@H](CC1CCCCC1)NC(=O)[C@H](C)CNC(=O)[C@H](CCc1ccccc1)CC(=O)N(C)CCCCN(C)C(=O)OC(C)(C)C [Example 21] | –
15 | 230 nM | CC(C)C[C@H](O)[C@H](O)[C@H](CC1CCCCC1)NC(=O)[C@H](C)CNC(=O)[C@H](CCc1ccccc1)OC(=O)N(C)CCN(C)C [Example 24] | –
16 | 10 nM | CC(C)C[C@H](O)[C@H](O)[C@H](CC1CCCCC1)NC(=O)[C@H](C)CNC(=O)[C@H](CCc1ccccc1)CC(=O)N(C)CCN(C)C(=O)OC(C)(C)C [Example 25] | –
